Patent publication US20250230193A1, “CYCLIC COMPOUND HAVING SELECTIVE KRAS INHIBITORY EFFECT ON HRAS AND NRAS” (CHUGAI SEIYAKU KABUSHIKI KAISHA, priority 2022, published 2025)
Where a SMILES comes first, the peptide text is derived from it. Bridges are numbered along the chain shown (N, C = ends). [ ]: non-standard residue; d: D form. The star is where a group is joined. hPhe(3-Cl-4-CF3) = N[C@@H](CCc1ccc(C(F)(F)F)c(Cl)c1)C(=O)O; NPrPhe(4-CF3) = CCCN[C@@H](Cc1ccc(C(F)(F)F)cc1)C(=O)O; NMeGly(cPent) = CN[C@H](C(=O)O)C1CCCC1; cisHyp = O=C(O)[C@@H]1C[C@H](O)CN1; NMeD = CN[C@@H](CC(=O)O)C(=O)O; NMeL = CN[C@@H](CC(C)C)C(=O)O; Morpholide = C1CN(*)CCO1; NMeA = CN[C@@H](C)C(=O)O; Ac5c = NC1(C(=O)O)CCCC1; Aze = O=C(O)[C@@H]1CCN1; Sar = CNCC(=O)O

Key:
[1] = target: GDP-bound NRAS wild-type protein (Homo sapiens, UniProt P01111); experiment: Binding to NRAS by surface plasmon resonance (SPR), Single Cycle Kinetics
Sequence of GDP-bound NRAS wild-type protein (P01111 whole entry): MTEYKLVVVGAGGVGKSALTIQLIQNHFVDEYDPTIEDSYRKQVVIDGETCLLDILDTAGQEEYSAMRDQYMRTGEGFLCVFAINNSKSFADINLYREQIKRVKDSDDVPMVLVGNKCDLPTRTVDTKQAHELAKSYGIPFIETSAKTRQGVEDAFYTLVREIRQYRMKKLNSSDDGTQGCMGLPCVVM

[2] = target: GDP-bound HRAS wild-type protein (Homo sapiens, UniProt P01112); experiment: Binding to HRAS by surface plasmon resonance (SPR), Single Cycle Kinetics
Sequence of GDP-bound HRAS wild-type protein (P01112 whole entry): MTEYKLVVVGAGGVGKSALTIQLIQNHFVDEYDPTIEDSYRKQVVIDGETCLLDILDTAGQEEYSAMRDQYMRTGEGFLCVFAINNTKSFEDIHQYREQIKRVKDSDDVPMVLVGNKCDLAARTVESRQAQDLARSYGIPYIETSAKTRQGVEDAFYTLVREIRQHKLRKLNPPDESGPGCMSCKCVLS

[3] = KD ratio, GDP-bound NRAS wild-type vs GDP-bound KRAS wild-type, SPR
[4] = KD ratio, GDP-bound HRAS wild-type vs GDP-bound KRAS wild-type, SPR

## CCCN1C(=O)[C@@H]2CCN2C(=O)[C@H](C)N(C)C(=O)[C@H]([C@@H](C)CC)NC(=O)[C@H](CC(C)C)NC(=O)C[C@@H](C(=O)N2CCOCC2)N(C)C(=O)[C@H](C2CCCC2)N(C)C(=O)C2(CCCC2)NC(=O)[C@@H]2CCCN2C(=O)[C@H](CCc2ccc(C(F)(F)F)c(Cl)c2)NC(=O)CN(C)C(=O)[C@@H]1Cc1ccc(C(F)(F)F)cc1 [PP0154] (LI[NMeA][Aze][NPrPhe(4-CF3)][Sar][hPhe(3-Cl-4-CF3)]P[Ac5c][NMeGly(cPent)][NMeD]-Morpholide; lactam N-11)
[1]; SPR
  NRAS/KRAS (ratio of KD for GDP-bound NRAS wild-type to KD for KRAS): C (A compound having a KD ratio of 0.1 or more and less than 3 is denoted as C)
[2]; SPR
  HRAS/KRAS (ratio of KD for GDP-bound HRAS wild-type to KD for KRAS): B (a compound having 3 or more and less than 10 is denoted as B)

## CCOC[C@H]1C(=O)N[C@@H]([C@@H](C)CC)C(=O)N(C)CC(=O)N(C)[C@H]2C/C=C\CCN(C2=O)[C@@H](Cc2ccc(C)cc2)C(=O)N(C)CC(=O)N[C@@H](CCc2ccc(C(F)(F)F)c(OC)c2)C(=O)N2C[C@@H](C)C[C@H]2C(=O)NC2(CC(C)(C)C2)C(=O)N(C)[C@@H](C2CCCC2)C(=O)N(C)[C@H](C(=O)N(C)C)CC(=O)N1C [PP2505]
[1]; SPR, GDP-bound NRAS wild-type vs GDP-bound KRAS wild-type
  NRAS/KRAS (ratio of KD value with respect to NRAS to KD value with respect to KRAS): A (a compound having 10 or more and less than 20 is denoted as A)
[2]; SPR, GDP-bound HRAS wild-type vs GDP-bound KRAS wild-type
  HRAS/KRAS (ratio of KD value with respect to HRAS to KD value with respect to KRAS): B (a compound having 3 or more and less than 10 is denoted as B)

## CCCN1C(=O)CN(C)C(=O)CN(C)C(=O)[C@H]([C@@H](C)CC)NC(=O)[C@H](CC(C)C)N(C)C(=O)C[C@@H](C(=O)N2CCOCC2)N(C)C(=O)[C@H](C2CCCC2)N(C)C(=O)C2(CCCC2)NC(=O)[C@@H]2C[C@H](O)CN2C(=O)[C@H](CCc2ccc(C(F)(F)F)c(Cl)c2)NC(=O)CN(C)C(=O)[C@@H]1Cc1ccc(C(F)(F)F)cc1 [PP0240] ([NMeL]I[Sar][Sar][NPrPhe(4-CF3)][Sar][hPhe(3-Cl-4-CF3)][cisHyp][Ac5c][NMeGly(cPent)][NMeD]-Morpholide; lactam N-11)
[1]; SPR
  NRAS/KRAS (ratio of KD for GDP-bound NRAS wild-type to KD for KRAS): B (a compound having 3 or more and less than 10 is denoted as B)
[2]; SPR
  HRAS/KRAS (ratio of KD for GDP-bound HRAS wild-type to KD for KRAS): C (A compound having a KD ratio of 0.1 or more and less than 3 is denoted as C)

## CCC[C@H]1C(=O)N[C@@H]([C@@H](C)CC)C(=O)N(C)CC(=O)N(C)[C@H]2C/C=C\CCN(C2=O)[C@@H](Cc2ccc(C)cc2)C(=O)N(C)CC(=O)N[C@@H](CCc2ccc(C(F)(F)F)c(Cl)c2)C(=O)N2C[C@@H](C)C[C@H]2C(=O)NC2(CC(C)(C)C2)C(=O)N(C)[C@@H](C2CCCC2)C(=O)N(C)[C@H](C(=O)N(C)CC)CC(=O)N1C [PP1893]
[1]; [3]
  NRAS/KRAS (ratio of KD value for NRAS to KD value for KRAS): A (a compound having 10 or more and less than 20 is denoted as A)
[2]; [4]
  HRAS/KRAS (ratio of KD value for HRAS to KD value for KRAS): B (a compound having 3 or more and less than 10 is denoted as B)

## CCO[C@@H]1CCN2C(=O)[C@H](CCc3cc(F)c(C(F)(F)F)c(F)c3)NC(=O)CN(C)C(=O)[C@H](Cc3ccc(C(F)(F)F)cc3)N3CCCC[C@@H](C3=O)N(C)C(=O)CN(C)C(=O)[C@H]([C@@H](C)CC)NC(=O)[C@H](CC(C)C)N(C)C(=O)C[C@@H](C(=O)N3CCOCC3)N(C)C(=O)[C@H](C3CCCC3)N(C)C(=O)C3(CCC3)NC(=O)[C@H]12 [PP1079]
[1]; [3]
  NRAS/KRAS (ratio of KD value with respect to NRAS to KD value with respect to KRAS): B (a compound having 3 or more and less than 10 is denoted as B)
[2]; [4]
  HRAS/KRAS (ratio of KD value with respect to HRAS to KD value with respect to KRAS): B (a compound having 3 or more and less than 10 is denoted as B)

## CC[C@H](C)[C@@H]1NC(=O)[C@H](CC)N(C)C(=O)C[C@@H](C(=O)N(C)C)N(CC)C(=O)[C@H](C2CCCC2)N(C)C(=O)C2(CCC2)NC(=O)[C@@H]2C[C@H](N3CCC(F)(F)CC3)CN2C(=O)[C@H](CCc2cc(F)c(C(F)(F)F)c(F)c2)NC(=O)CN(C)C(=O)[C@H](Cc2ccc(C(F)(F)F)cc2)N2CCCC[C@@H](C2=O)N(C)C(=O)CN(C)C1=O [PP0659]
[1]; SPR
  NRAS/KRAS (ratio of KD value with respect to GDP-bound NRAS wild-type protein to KD value with respect to KRAS): B (a compound having 3 or more and less than 10 is denoted as B)
[2]; SPR
  HRAS/KRAS (ratio of KD value with respect to GDP-bound HRAS wild-type protein to KD value with respect to KRAS): B (a compound having 3 or more and less than 10 is denoted as B)

## CCC(CC)[C@H]1C(=O)N(C)[C@H](C(=O)N(C)C)CC(=O)N(C)[C@@H](COC)C(=O)N[C@@H]([C@@H](C)CC)C(=O)N(C2CC2)CC(=O)N(C)[C@H]2C/C=C\CCN(C2=O)[C@@H](CC2CCC(F)(F)CC2)C(=O)N(C)CC(=O)N[C@@H](CCc2cc(F)c(C(F)(F)F)c(F)c2)C(=O)N2C[C@H](OC3CCCC3)C[C@H]2C(=O)NC2(CC(C)(C)C2)C(=O)N1C [PP2627]
[1]; class symbols
  NRAS/KRAS (ratio of KD value with respect to GDP-bound NRAS wild-type protein to KD value with respect to KRAS): A (a compound having 10 or more and less than 20 is denoted as A)
[2]; class symbols
  HRAS/KRAS (ratio of KD value with respect to GDP-bound HRAS wild-type protein to KD value with respect to KRAS): A (a compound having 10 or more and less than 20 is denoted as A)

## CCC[C@H]1C(=O)N[C@@H]([C@@H](C)CC)C(=O)N(C)CC(=O)N(C)[C@H]2C/C=C\CCN(C2=O)[C@@H](Cc2ccc(C)cc2)C(=O)N(C)CC(=O)N[C@@H](CCc2ccc3sc(F)c(C)c3c2)C(=O)N2C[C@H](OCC)C[C@H]2C(=O)NC2(CC(C)(C)C2)C(=O)N(C)[C@@H](C2CCCC2)C(=O)N(C)[C@H](C(=O)N(C)C)CC(=O)N1C [PP2949]
[1]; class symbols
  NRAS/KRAS (ratio of KD value with respect to GDP-bound NRAS wild-type protein to KD value with respect to KRAS): A (a compound having 10 or more and less than 20 is denoted as A)
[2]; class symbols
  HRAS/KRAS (ratio of KD value with respect to GDP-bound HRAS wild-type protein to KD value with respect to KRAS): A (a compound having 10 or more and less than 20 is denoted as A)
